target: T1, KRas G12C (Homo sapiens, UniProt P01116, C118S/C51S/C80L/G12C); assay: KRas G12C Modification Assay (LCMS detection of covalent adduct); assay type: binding; details: 5 μM concentration for 3 hours; LC/MS of intact protein; higher POC = higher degree of modification
T1 construct: GDP-loaded K-Ras (1-169) G12C, C51S, C80L, C118S
Procedure: A 10 μL aliquot of each protein solution was then transferred to a 384 well microtiter plate. Initial compound stocks were generated at fifty times their desired final assay concentration in DMSO.
Exemplary compounds of Formula (II) were diluted 25-fold into K-Ras Assay Buffer to a final of two times their final concentration. A 10 μL aliquot of each diluted compound solution was then added to each of the protein solutions in the microtiter plate to initiate reaction. […] At each time point, the reactions were quenched with 20 μL of a 25 mM acetic acid solution. […] Once all reactions were quenched, the plates were heat sealed and the samples were injected into a LC/MS system for data acquisition.
Samples were injected in their liquid phase onto a C-3 reverse phase column to remove assay buffer and prepare the samples for mass spectrometer. The proteins were eluted from the column using an acetonitrile gradient and fed directly into the mass analyzer. Initial raw data analysis took place in Agilent MassHunter software immediately post data acquisition.
Raw data analysis of the intact protein was exclusively a deconvolution of the multiple charge states of each protein in solution using a maximum entropy deconvolution provided in Mass Hunter. To minimize complexity, only the data over limited mass ranges were considered for analysis, with a minimum of one Dalton mass step intervals. The heights of all masses identified during raw data analysis were exported to be further analyzed in Spotfire® data analysis software.
Final data analysis was a multistep process in the Spotfire® data analysis software package. Briefly, each protein mass was calculated as a percent of the total signal of that sample, that percentage was then normalized to the percentage of signal of the protein in the absence of reactive compounds. Those normalized signals were reported as normalized percent of control (POC). […] Key: “A”≤25% POC; “B”>25% POC−≤50% POC; “C”>50% POC and ND=not determined.

| SMILES | POC (normalized percent of control; degree of covalent modification of KRas G12C) |
| --- | --- |
| C=C(F)C(=O)N1CCN(c2nc(OC[C@@H]3CCCN3C)nc3c2CCN(c2cccc4cccc(C)c24)C3)C[C@@H]1CC#N [Example 36, 2-((S)-1-(2-fluoroacryloyl)-4-(7-(8-methylnaphthalen-1-yl)-2-(((S)-1-methylpyrrolidin-2-yl)methoxy)-5,6,7,8-tetrahydropyrido[3,4-d]pyrimidin-4-yl)piperazin-2-yl)acetonitrile] | C (“C”>50% POC) |
| Cc1cccc(N2CCc3c(nc(OC[C@@H]4CCCN4C)nc3N3CCN(C(=O)/C=C/C(F)(F)F)[C@@H](CC#N)C3)C2)c1C [Example 15, 2-((S)-4-(7-(2,3-dimethylphenyl)-2-(((S)-1-methylpyrrolidin-2-yl)methoxy)-5,6,7,8-tetrahydropyrido[3,4-d]pyrimidin-4-yl)-1-((E)-4,4,4-trifluorobut-2-enoyl)piperazin-2-yl)acetonitrile] | C (“C”>50% POC) |
| Cc1cccc2cccc(N3CCc4c(nc(OC[C@@H]5CCCN5C)nc4N4CCN(C(=O)/C=C/C#N)[C@@H](CC#N)C4)C3)c12 [Example 30, (E)-4-((S)-2-(cyanomethyl)-4-(7-(8-methylnaphthalen-1-yl)-2-(((S)-1-methylpyrrolidin-2-yl)methoxy)-5,6,7,8-tetrahydropyrido[3,4-d]pyrimidin-4-yl)piperazin-1-yl)-4-oxobut-2-enenitrile] | C (“C”>50% POC) |
| C=C(C(=O)N1CCN(c2nc(OC[C@@H]3CCCN3C)nc3c2CCN(c2cccc4cccc(C)c24)C3)C[C@@H]1CC#N)C(F)(F)F [Example 21, 2-((S)-4-(7-(8-methylnaphthalen-1-yl)-2-(((S)-1-methylpyrrolidin-2-yl)methoxy)-5,6,7,8-tetrahydropyrido[3,4-d]pyrimidin-4-yl)-1-(2-(trifluoromethyl)acryloyl)piperazin-2-yl)acetonitrile] | A (“A”≤25% POC) |
| Cc1cccc2cccc(N3CCc4c(nc(OC[C@@H]5CCCN5C)nc4N4CCN(C(=O)/C=C/CCl)[C@@H](CC#N)C4)C3)c12 [Example 27, 2-((S)-1-((E)-4-chlorobut-2-enoyl)-4-(7-(8-methylnaphthalen-1-yl)-2-(((S)-1-methylpyrrolidin-2-yl)methoxy)-5,6,7,8-tetrahydropyrido[3,4-d]pyrimidin-4-yl)piperazin-2-yl)acetonitrile] | C (“C”>50% POC) |
| C=C(C(=O)N1CCN(c2nc(OC[C@@H]3CCCN3C)nc3c2CCN(c2cccc(C)c2C)C3)C[C@@H]1CC#N)C(F)(F)F [Example 16, 2-((S)-4-(7-(2,3-dimethylphenyl)-2-(((S)-1-methylpyrrolidin-2-yl)methoxy)-5,6,7,8-tetrahydropyrido[3,4-d]pyrimidin-4-yl)-1-(2-(trifluoromethyl)acryloyl)piperazin-2-yl)acetonitrile] | A (“A”≤25% POC) |
| Cc1cccc2cccc(N3CCc4c(nc(OC[C@@H]5CCCN5C)nc4N4CCN(C(=O)/C=C/c5ccncc5)[C@@H](CC#N)C4)C3)c12 [Example 55, 2-((S)-4-(7-(8-methylnaphthalen-1-yl)-2-(((S)-1-methylpyrrolidin-2-yl)methoxy)-5,6,7,8-tetrahydropyrido[3,4-d]pyrimidin-4-yl)-1-((E)-3-(pyridin-4-yl)acryloyl)piperazin-2-yl)acetonitrile] | C (“C”>50% POC) |
| CN1CCC[C@H]1COc1nc2c(c(N3CCN(C(=O)/C=C/CN4CCC(F)C4)[C@@H](CC#N)C3)n1)CCN(c1cccc3cccc(Cl)c13)C2 (stereo partly drawn) [Example 9, 2-[(2S)-4-[7-(8-chloro-1-naphthyl)-2-[[(2S)-1-methylpyrrolidin-2-yl]methoxy]-6,8-dihydro-5H-pyrido[3,4-d]pyrimidin-4-yl]-1-[(E)-4-(3-fluoropyrrolidin-1-yl)but-2-enoyl]piperazin-2-yl]acetonitrile] | C (“C”>50% POC) |
| C=C(NC(C)=O)C(=O)N1CCN(c2nc(OC[C@@H]3CCCN3C)nc3c2CCN(c2cccc4cccc(C)c24)C3)C[C@@H]1CC#N [Example 54, N-(3-((S)-2-(cyanomethyl)-4-(7-(8-methylnaphthalen-1-yl)-2-(((S)-1-methylpyrrolidin-2-yl)methoxy)-5,6,7,8-tetrahydropyrido[3,4-d]pyrimidin-4-yl)piperazin-1-yl)-3-oxoprop-1-en-2-yl)acetamide] | B (“B”>25% POC−≤50% POC) |
| Cc1cccc2cccc(N3CCc4c(nc(OC[C@@H]5CCCN5C)nc4N4CCN(C(=O)C#CCO)[C@@H](CC#N)C4)C3)c12 [Example 37, 2-((S)-1-(4-hydroxybut-2-ynoyl)-4-(7-(8-methylnaphthalen-1-yl)-2-(((S)-1-methylpyrrolidin-2-yl)methoxy)-5,6,7,8-tetrahydropyrido[3,4-d]pyrimidin-4-yl)piperazin-2-yl)acetonitrile] | C (“C”>50% POC) |
| Cc1cccc2cccc(N3CCc4c(nc(OC[C@@H]5CCCN5C)nc4N4CCN(C(=O)/C=C/C(=O)N(C)C)[C@@H](CC#N)C4)C3)c12 [Example 28, (E)-4-((S)-2-(cyanomethyl)-4-(7-(8-methylnaphthalen-1-yl)-2-(((S)-1-methylpyrrolidin-2-yl)methoxy)-5,6,7,8-tetrahydropyrido[3,4-d]pyrimidin-4-yl)piperazin-1-yl)-N,N-dimethyl-4-oxobut-2-enamide] | C (“C”>50% POC) |
| C=C(F)C(=O)N1CCN(c2nc(OC[C@@H]3CCCN3C)nc3c2CCN(c2cccc(C)c2C)C3)C[C@@H]1CC#N [Example 1, 2-[(2S)-4-[7-(2,3-dimethylphenyl)-2-[[(2S)-1-methylpyrrolidin-2-yl]methoxy]-6,8-dihydro-5H-pyrido[3,4-d]pyrimidin-4-yl]-1-(2-fluoroprop-2-enoyl)piperazin-2-yl]acetonitrile] | C (“C”>50% POC) |
| Cc1cccc2cccc(N3CCc4c(nc(OC[C@@H]5CCCN5C)nc4N4CCN(C(=O)C5=CC(=O)CC5)[C@@H](CC#N)C4)C3)c12 [Example 26, 2-((S)-4-(7-(8-methylnaphthalen-1-yl)-2-(((S)-1-methylpyrrolidin-2-yl)methoxy)-5,6,7,8-tetrahydropyrido[3,4-d]pyrimidin-4-yl)-1-(3-oxocyclopent-1-ene-1-carbonyl)piperazin-2-yl)acetonitrile] | C (“C”>50% POC) |
| CN1CCC[C@H]1COc1nc2c(c(N3CCN(C(=O)/C=C/CO)[C@@H](CC#N)C3)n1)CCN(c1cccc3cccc(Cl)c13)C2 [Example 42, 2-[(2S)-4-[7-(8-chloro-1-naphthyl)-2-[[(2S)-1-methylpyrrolidin-2-yl]methoxy]-6,8-dihydro-5H-pyrido[3,4-d]pyrimidin-4-yl]-1-[(E)-4-hydroxybut-2-enoyl]piperazin-2-yl]acetonitrile] | C (“C”>50% POC) |
| C=C(Cl)C(=O)N1CCN(c2nc(OC[C@@H]3CCCN3C)nc3c2CCN(c2cccc(C)c2C)C3)C[C@@H]1CC#N [Example 2, 2-[(2S)-1-(2-chloroprop-2-enoyl)-4-[7-(2,3-dimethylphenyl)-2-[[(2S)-1-methylpyrrolidin-2-yl]methoxy]-6,8-dihydro-5H-pyrido[3,4-d]pyrimidin-4-yl]piperazin-2-yl]acetonitrile] | C (“C”>50% POC) |
| Cc1cccc2cccc(N3CCc4c(nc(OC[C@@H]5CCCN5C)nc4N4CCN(C(=O)/C=C/C(N)=O)[C@@H](CC#N)C4)C3)c12 [Example 29, (E)-4-((S)-2-(cyanomethyl)-4-(7-(8-methylnaphthalen-1-yl)-2-(((S)-1-methylpyrrolidin-2-yl)methoxy)-5,6,7,8-tetrahydropyrido[3,4-d]pyrimidin-4-yl)piperazin-1-yl)-4-oxobut-2-enamide] | C (“C”>50% POC) |
| C=C(COC)C(=O)N1CCN(c2nc(OC[C@@H]3CCCN3C)nc3c2CCN(c2cccc4cccc(Cl)c24)C3)C[C@@H]1CC#N [Example 14, 2-[(2S)-4-[7-(8-chloro-1-naphthyl)-2-[[(2S)-1-methylpyrrolidin-2-yl]methoxy]-6,8-dihydro-5H-pyrido[3,4-d]pyrimidin-4-yl]-1-[2-(methoxymethyl)prop-2-enoyl]piperazin-2-yl]acetonitrile] | A (“A”≤25% POC) |

Reference: US20200308170A1, “KRAS G12C INHIBITORS” (Mirati Therapeutics, Inc., priority 2017, published 2020)
